According to patent US5449676A, “Pyridazines” (priority 1991, dated 1995):
Read-outs that look alike come from different tables or passages of the source.

Legend:
PDE III = target: T1, PDE III (Homo sapiens, UniProt Q14432); test: inhibition of PDE III isolated from human platelets; type: biochemical; conditions: negative logarithm of IC50; cAMP 0.5 μmol/l; read-out: PDE III hum. platelets -lg[IC50 ] (converted)
T1 construct: PDE III isolated from human platelets; from tissue; host or cells: human platelets
Text: (§1) The specific inhibition of phosphodiesterase IV (PDE IV=high-affinity cAMP-PDE which cannot be inhibited by cGMP, rolipram-sensitive) is regarded as particularly indicative of an expected bronchospasmolytic and/or antiinflammatory effect. The specificity of the inhibition is moreover described by the ratio [IC50 ]PDE-III /[IC50 ]PDE-IV (PDE III=high-affinity cAMP-PDE which can be inhibited by cGMP) [H. Hidaka et al., Adv. Cycl. Nucl. Res. 13, 145 (1984); TiPS 5, 237 (1984); R. Weishaar et al., J. Med. Chem. 28, (1985); S. A. Harrison et al., Molec. Pharmac. 29, 506 (1986); J. Klein-Tebbe et al., Allergologie 12, 12 (1989); C. Schudt et al., Allergologie 12, 12, (1989); C. Schudt et al., Agents and Action 1991 in press; C. D. Nicholson et al., TiPS 12, (1), 19 (1991)].
(§2) For this reason, the PDE inhibition by the compounds according to the invention was determined on a PDE III isolated from human platelets and on PDE IV isolated from human polymorphonuclear neutrophilic cells (PMNs) and from the dog trachea. Phosphodiesterases III and IV are isolated by chromatography as described by Polson et al., Biochem. Pharmacol. 31, 3403-3406 (1982).
(§3) The substances are dissolved and diluted further in DMSO. 2.1 μl samples from a series of solutions diluted up to 100 fold are mixed with 212 μl of reaction mixture. The reaction mixture contains Hepes (100 mmol/l), DTE (5 mmol/l), MgCl2 (5 mmol/l), CaCl2 (10 μmol/l), BSA fraction V 0.5 mg, ml, cAMP 0.5 μmol/l, 2,8-^3 H-cAMP 250,000 cpm/ml (0.3 μCi/ml, S.A. […]), SV (snake venom) 25 μg/212 μl of test mixture.

PDE IV [1] = test: inhibition of PDE IV isolated from dog trachea; type: biochemical; conditions: for PDE IV dog trachea -lg[IC50 ]: negative logarithm of IC50, cAMP 0.5 μmol/l; for [IC50 ] PDE III/[IC50 ] PDE IV dog tr.: selectivity ratio, PDE III hum. platelets vs PDE IV dog trachea
Text: as §1, §2, §3

tracheal rings = test: bronchospasmolytic effect on the chain of tracheal rings from guinea pigs in vitro; type: cell-based; conditions: for EC50: Cavia porcellus, read-out: -lg[EC50 ] (converted); for EC50 / -lg[EC50 ]: negative logarithm of EC50 mol/l, 50% of maximum achievable relaxation; for [EC50 ] theophylline/[EC50 ] substance: ratio of EC50 values, theophylline vs substance
Description: The bronchospasmolytic effect of the compounds on the chain of tracheal rings from guinea pigs was tested in vitro as follows:
Thus, a complete dose-effect plot for the test substance is obtained over a period of 20 to 30 minutes. The particular relaxation is expressed as a percentage fraction of the maximum relaxation achievable by administration of (-)isoprenaline (10^-6 mol/l).

PDE IV [2] = test: inhibition of PDE IV isolated from human polymorphonuclear neutrophilic cells (PMNs); type: biochemical; conditions: for PDE IV hum. PMNs -lg[IC50 ]: negative logarithm of IC50, cAMP 0.5 μmol/l; for [IC50 ] PDE III/[IC50 ] PDE IV PMNs: selectivity ratio, PDE III hum. platelets vs PDE IV hum. PMNs
Text: as §1, §2, §3

[3] = test system: histamine-induced bronchospasm; test: histamine-induced bronchospasm in anesthetized guinea pigs; type: in vivo; conditions: for inhibition in vivo at 20 µmol/kg / inhibition in vivo at 60 µmol/kg / inhibition in vivo at 100 µmol/kg / inhibition in vivo at 5 µmol/kg / inhibition in vivo at 10 µmol/kg: Cavia porcellus; for inhibition in vivo at 5 µmol/kg: 5 μmol/kg; for inhibition in vivo at 10 µmol/kg: 10 μmol/kg
Description: One histamine spasm before administration of the substance was compared with several histamine spasms after administration of the substance. The test substances were administered intravenously (i.v.) and/or intrajejunally (i.j.).

[4] = test system: acetylcholine-induced bronchospasm; test: protective effect against acetylcholine-induced bronchospasm in conscious guinea pigs; type: in vivo; conditions: oral, 30 minutes after administration, percentage of protected animals; for responders at 10 µmol/kg: 10 μmol/kg
Description: In addition, the bronchospasmolytic effect was tested on the "protective effect against acetylcholine-induced bronchospasm in conscious guinea pigs" model:
Guinea pigs (250-350 g) are exposed in a closed Plexiglass cylinder (volume […] ) to an acetylcholine mist (0.06% in 0.9% sodium chloride solution; Heyer Use 77 ultrasonic atomizer) before administration of the substance and twice at an interval of 20 minutes after administration of the substance. The time from the start of atomization to the onset of marked breathing difficulties (in some cases hypoxic convulsion in the lateral position) is measured and called the latency time. An increase in the latency time after administration of the substance to at least three times the average latency time before administration of the substance is regarded as a protective effect, and the number of protected animals in the group is determined. […]
[…] After 30 minutes, the animals are again exposed to the acetylcholine mist and the latency times are measured. An increase in the latency time to at least three times the length is regarded as a protective effect.

[5] = 1 h, read-out: % inhibition (0-1 h) of the histamine-induced decrease in Vmax
[6] = 1 h, read-out: % inhibition after 1 h of the histamine-induced decrease in Vmax
[7] = iv, 1 h, read-out: % inhibition (0-1 h) of the histamine-induced decrease in Vmax
[8] = iv, 1 h, read-out: % inhibition after 1 h of the histamine-induced decrease in Vmax
[9] = Cavia porcellus, 0.5 h, 100 μmol/kg
[10] = iv, 20 μmol/kg, after 1 h, read-out: % inhibition after 1 h of the histamine-induced decrease in Vmax
[11] = iv, 20 μmol/kg, average 0-1 h after administration, read-out: % inhibition (0-1 h) of the histamine-induced decrease in Vmax
[12] = iv, after 1 h, read-out: % inhibition after 1 h of the histamine-induced decrease in Vmax
[13] = iv, average 0-1 h after administration, read-out: % inhibition (0-1 h) of the histamine-induced decrease in Vmax

T1 sequence (Q14432 whole entry): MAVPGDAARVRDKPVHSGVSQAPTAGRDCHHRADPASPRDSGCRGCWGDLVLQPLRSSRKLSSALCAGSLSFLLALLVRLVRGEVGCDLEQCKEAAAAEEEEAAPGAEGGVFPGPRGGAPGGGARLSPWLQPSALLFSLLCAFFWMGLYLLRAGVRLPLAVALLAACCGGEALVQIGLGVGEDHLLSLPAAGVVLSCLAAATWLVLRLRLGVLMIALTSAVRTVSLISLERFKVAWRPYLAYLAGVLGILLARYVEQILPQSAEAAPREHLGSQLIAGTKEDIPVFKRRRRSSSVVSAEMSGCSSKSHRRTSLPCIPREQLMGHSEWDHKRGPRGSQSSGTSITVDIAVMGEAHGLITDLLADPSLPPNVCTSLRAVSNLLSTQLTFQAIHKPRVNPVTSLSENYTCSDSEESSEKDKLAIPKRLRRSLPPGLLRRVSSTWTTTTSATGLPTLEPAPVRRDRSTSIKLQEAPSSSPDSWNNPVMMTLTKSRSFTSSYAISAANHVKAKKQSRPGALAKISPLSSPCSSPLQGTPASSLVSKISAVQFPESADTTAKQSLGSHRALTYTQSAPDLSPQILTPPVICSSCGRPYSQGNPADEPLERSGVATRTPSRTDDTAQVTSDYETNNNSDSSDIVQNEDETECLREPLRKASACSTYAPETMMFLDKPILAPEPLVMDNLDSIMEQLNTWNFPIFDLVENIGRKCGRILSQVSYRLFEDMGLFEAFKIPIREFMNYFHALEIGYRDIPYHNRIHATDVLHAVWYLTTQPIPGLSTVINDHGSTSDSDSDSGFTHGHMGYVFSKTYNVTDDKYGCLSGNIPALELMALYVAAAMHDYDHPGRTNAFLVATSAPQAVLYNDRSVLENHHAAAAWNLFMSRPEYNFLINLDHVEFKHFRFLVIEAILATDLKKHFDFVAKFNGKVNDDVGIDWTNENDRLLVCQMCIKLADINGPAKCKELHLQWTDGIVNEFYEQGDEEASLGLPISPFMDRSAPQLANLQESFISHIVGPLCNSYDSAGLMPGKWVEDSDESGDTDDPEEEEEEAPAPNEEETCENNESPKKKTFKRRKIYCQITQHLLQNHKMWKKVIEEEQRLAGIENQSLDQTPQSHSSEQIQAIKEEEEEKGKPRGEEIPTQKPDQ

| Molecule | IC50 (PDE III) [µM] | EC50 (tracheal rings) [nM] | [EC50 ] theophylline/[EC50 ] substance (tracheal rings) | PDE IV hum. PMNs -lg[IC50 ] (PDE IV [2]) | [IC50 ] PDE III/[IC50 ] PDE IV PMNs (PDE IV [2]) | responders at 100 µmol/kg [4, 9] [%] | also measured |
| --- | --- | --- | --- | --- | --- | --- | --- |
| COc1ccc(-c2ccc(N)nn2)cc1OC1CCCCCC1 [Serial No. 8, 3-amino-6-(3-cycloheptyloxy-4-methoxyphenyl)pyridazine] | 77.6 | – | – | – | – | – | PDE IV dog trachea -lg[IC50 ] (PDE IV [1]): 5.37; [IC50 ] PDE III/[IC50 ] PDE IV dog tr. (PDE IV [1]): 18.2 |
| COc1ccc(-c2ccc(N)nn2)cc1OC1CCCCC1 [Serial No. 7, 3-amino-6-(3-cyclohexyloxy-4-methoxyphenyl)pyridazine] | 60.3 | – | – | – | – | – | PDE IV dog trachea -lg[IC50 ] (PDE IV [1]): 5.17; [IC50 ] PDE III/[IC50 ] PDE IV dog tr. (PDE IV [1]): 8.9 |
| CC(C)COc1cc(-c2ccc(N)[n+]([O-])n2)ccc1OC(F)F [compound 23] | 126 | 3020 | 44.7 | 7.03 | 1350 | – | – |
| CCOc1ccc(-c2ccc(N)[n+]([O-])n2)cc1OC(F)F [compound 21] | 44.7 | 562 | 240 | 5.19 | 6.9 | – | – |
| Cn1c(=O)c2[nH]cnc2n(C)c1=O [Theophylline, reference compound] | – | – | – | 3.77 | – | 20 | inhibition in vivo at 20 µmol/kg [3, 5]: 11%; inhibition in vivo at 60 µmol/kg [3, 5]: 37%; inhibition in vivo at 100 µmol/kg [3, 5]: 45%; inhibition in vivo at 20 µmol/kg [3, 6]: 8%; inhibition in vivo at 60 µmol/kg [3, 6]: 42%; inhibition in vivo at 100 µmol/kg [3, 6]: 44%; inhibition in vivo at 20 µmol/kg [3, 7]: 13%; inhibition in vivo at 60 µmol/kg [3, 7]: 25%; inhibition in vivo at 100 µmol/kg [3, 7]: 34%; inhibition in vivo at 20 µmol/kg [3, 8]: 5%; inhibition in vivo at 60 µmol/kg [3, 8]: 12%; inhibition in vivo at 100 µmol/kg [3, 8]: 22%; responders at 200 µmol/kg ([4]; Cavia porcellus, 0.5 h, 200 μmol/kg): 40%; responders at 400 µmol/kg ([4]; Cavia porcellus, 0.5 h, 400 μmol/kg): 70% |
| 3-amino-6-(4-difluoromethoxy-3-ethoxyphenyl)pyridazine 2-oxide [Serial No. 19] | – | – | 14.5 | – | – | – | -lg[EC50 ] (tracheal rings): 5.03; % protective effect ([4]; 100 μmol/kg): 35% |
| Nc1ccc(-c2ccc(OC(F)F)c(OCC(F)(F)F)c2)n[n+]1[O-] [compound 25] | 70.8 | 355 | 380 | 6.42 | 186 | 70 | inhibition in vivo at 20 µmol/kg [3, 10]: 33%; inhibition in vivo at 20 µmol/kg [3, 11]: 34%; responders at 10 µmol/kg ([4]; Cavia porcellus, 0.5 h): 45% |
| Nc1ccc(-c2ccc(OC(F)F)c(OCC3CC3)c2)n[n+]1[O-] [compound 26] | 18.2 | 1000 | 135 | 7.48 | 550 | – | inhibition in vivo at 20 µmol/kg [3, 10]: 12%; inhibition in vivo at 20 µmol/kg [3, 11]: 15%; responders at 10 µmol/kg ([4]; Cavia porcellus, 0.5 h): 70% |
| CC(C)COc1cc(-c2ccc(N)nn2)ccc1OC(F)F [compound 17] | 151 | – | – | 6,96 | 1466 | – | – |
| COc1cc(-c2ccc(N)nn2)ccc1OC(C)C [Serial No. 5, 3-amino-6-[3-methoxy-4-(1-methylethoxy)phenyl]pyridazine] | – | – | – | – | – | 45 | – |
| CC(C)Oc1cc(-c2ccc(N)[n+]([O-])n2)ccc1OC(F)F [compound 22] | 12 | 3020 | 44.7 | 6.26 | 21.9 | 60 | – |
| 3-amino-6-(4-difluoromethoxy-3-methoxyphenyl)pyridazine 2-oxide [Serial No. 20] | – | – | 33.2 | – | – | – | -lg[EC50 ] (tracheal rings): 5.39; % protective effect ([4]; 100 μmol/kg): 50% |
| Nc1ccc(-c2ccc(OC(F)F)c(OC3CCCC3)c2)n[n+]1[O-] [compound 24] | 47.9 | 2040 | 65.5 | 7.24 | 832 | 60 | – |
| CC(C)Oc1cc(-c2ccc(N)nn2)ccc1OC(F)F [compound 15] | 107 | – | – | 6.78 | 794 | – | – |
| Nc1ccc(-c2ccc(OC(F)F)c(OCC(F)(F)F)c2)nn1 [compound 16] | 331 | – | – | 6.88 | 2515 | – | – |
| 3-amino-6-(4-difluoromethoxy-3-methoxyphenyl)pyridazine [Serial No. 11] | – | – | 20.4 | – | – | – | -lg[EC50 ] (tracheal rings): 5.18; % inhibition after 1 h of the histamine-induced decrease in Vmax ([3]; i.v., 20 μmol/kg, after 1 h): is; % inhibition (0-1 h) of the histamine-induced decrease in Vmax ([3]; i.v., 20 μmol/kg, average 0-1 h after administration): 22%; % protective effect ([4]; 30 μmol/kg): 35%; % protective effect ([4]; 100 μmol/kg, listed as 4): 35%; % protective effect ([4]; 100 μmol/kg, listed as 6): 85% |
| Nc1ccc(-c2ccc(OC(F)F)c(OCC3CC3)c2)nn1 [compound 18] | 145 | – | – | 7.47 | 4265 | 75 | inhibition in vivo at 5 µmol/kg [3, 12]: 49%; inhibition in vivo at 5 µmol/kg [3, 13]: 40%; inhibition in vivo at 10 µmol/kg [3, 12]: 38%; inhibition in vivo at 10 µmol/kg [3, 13]: 33%; inhibition in vivo at 20 µmol/kg [3, 10]: 35%; inhibition in vivo at 20 µmol/kg [3, 11]: 31%; inhibition in vivo at 10 µmol/kg ([3]; i.j. admin., after 1 h, read-out: % inhibition after 1 h of the histamine-induced decrease in Vmax): 43%; inhibition in vivo at 10 µmol/kg ([3]; i.j. admin., average 0-1 h after administration, read-out: % inhibition (0-1 h) of the histamine-induced decrease in Vmax): 32%; responders at 10 µmol/kg ([4]; Cavia porcellus, 0.5 h): 75% |
| Nc1ccc(-c2ccc(OC(F)F)c(OC3CCCC3)c2)nn1 [compound 14] | 53.7 | 6610 | 20.4 | 7.15 | 1466 | – | – |
